This is an account of results in BindingDB's records for doi:10.1021/jm00397a034 (Hoffmann-La Roche, 1988).

Assay [1] in a line: Ability to inhibit platelet activating factor (PAF) binding to platelets by 50% was determined by using [3H]PAF as radioligand.
The target of assay [2] is Platelet-activating factor receptor (Canis familiaris). Nature of the assay: ChEBML_158835. How it is done:
Ability to inhibit platelet activating factor (PAF) binding to platelets by 50% was determined by using [3H]PAF as radioligand

Some results are limits rather than exact numbers.

What is called IC50 is the midpoint of a concentration-inhibition curve. A lower IC50 goes with greater potency. In turn, `Cc1cc2nc3ccc(C(=O)NCCCCc4cccnc4)cn3c(=O)c2cc1C` registered an IC50 in assay [1] of 250 nM. In turn, `CC(C)c1ccc2nc3ccc(C(=O)NCCCCc4ccncc4)cn3c(=O)c2c1` came in with an IC50 in assay [1] of 1300 nM. Still for that read-out and setting: the value for `CC(C)c1ccc2nc3ccc(C(=O)NCCCCc4cccnc4)cn3c(=O)c2c1` was 350 nM; that for `O=C(NCCCCc1cccnc1)c1ccc2nc3ccc(O)cc3c(=O)n2c1` was 1200 nM. In the case of `CC(C)Oc1ccc2nc3ccc(C(=O)NCCCCc4cccnc4)cn3c(=O)c2c1`, in assay [1], the IC50 stood at 600 nM.

In assay [1], `CC(C)c1ccc2nc3ccc(C(=O)NCCCc4cccnc4)cn3c(=O)c2c1` came in with a half-inhibitory concentration (IC50) greater than 1000 nM. As for `CC(C)c1ccc2nc3ccc(C(=O)NCCCCCCCc4cccnc4)cn3c(=O)c2c1`, the half-inhibitory concentration (IC50) in assay [1] is greater than 1000 nM. In turn, `COc1ccc2nc3ccc(C(=O)NCCCCc4cccnc4)cn3c(=O)c2c1` displayed an IC50 in assay [1] of 1000 nM.

In assay [1], `Cc1ccc2nc3ccc(C(=O)NCCCCc4cccnc4)cn3c(=O)c2c1` had a 50% inhibitory concentration (IC50) of 500 nM. Same read-out and setting: the value for `CC(C)c1ccc2nc3ccc(C(=O)NC(C)(C)CCCc4cccnc4)cn3c(=O)c2c1` was 1200 nM; that for `COc1ccc2c(=O)n3cc(C(=O)NCCCCc4cccnc4)ccc3nc2c1` was 370 nM.

In assay [1], `CC(C)c1ccc2nc3ccc(C(=O)NCCCCc4ccccn4)cn3c(=O)c2c1` showed a half-maximal inhibitory concentration (IC50) of 5000 nM. As to `CC(C)c1ccc2nc3ccc(C(=O)NCCCCCc4cccnc4)cn3c(=O)c2c1`, the IC50 in assay [1] was greater than 1000 nM.

In assay [1], `CC(C)c1ccc2nc3ccc(C(=O)NCCCCn4ccnc4)cn3c(=O)c2c1` came in with a concentration for half-maximal inhibition (IC50) of 3500 nM. Turning to `O=C(NCCCCc1cccnc1)c1ccc2nc3ccccc3c(=O)n2c1`, the IC50 in assay [1] was 1800 nM. Still for that read-out and setting: under `CC(C)c1ccc2nc3ccc(C(=O)NCCCCCCc4cccnc4)cn3c(=O)c2c1` stands 400 nM.

Take `CC(C)c1ccc2nc3ccc(C(=O)NCCCCc4cncnc4)cn3c(=O)c2c1`: in assay [1], the 50% inhibitory concentration (IC50) is 450 nM.

Consider `CC(CCCc1cccnc1)NC(=O)c1ccc2nc3ccc(C(C)C)cc3c(=O)n2c1` (configuration not stated), for which, in assay [2], the midpoint of inhibition, the IC50, lay at 400 nM. In assay [1], `O=C(NCCCCc1cccnc1)c1ccc2nc3ccc(Br)cc3c(=O)n2c1` registered an IC50 of 700 nM.

In the case of `O=C(NCCCCc1cccnc1)c1ccc2nc3cc(Cl)ccc3c(=O)n2c1`, in assay [1], the IC50 turned out to be 1000 nM. The compound `CC(C)c1ccc2nc3ccc(C(=O)NCCc4cccnc4)cn3c(=O)c2c1` yielded a half-inhibitory concentration (IC50) in assay [1] of 2500 nM. `Cc1cc2nc3ccc(C(=O)NCCCCCC[n+]4ccccc4)cn3c(=O)c2cc1C` [1-{6-[(2,3-Dimethyl-11-oxo-11H-pyrido[2,1-b]quinazoline-8-carbonyl)-amino]-hexyl}-pyridinium] returned an IC50 in assay [1] greater than 1000 nM. The compound `Cc1cc2nc3ccc(C(=O)NCCCCc4cncnc4)cn3c(=O)c2cc1C` [2,3-Dimethyl-11-oxo-11H-pyrido[2,1-b]quinazoline-8-carboxylic acid (4-pyrimidin-5-yl-butyl)-amide] showed an IC50 in assay [1] of 100 nM. On the same count and under the same terms, the value for `CC(C)c1ccc2nc3ccc(CCCCCCc4cccnc4)cn3c(=O)c2c1` [2-Isopropyl-8-(6-pyridin-3-yl-hexyl)-pyrido[2,1-b]quinazolin-11-one] was greater than 1000 nM; that for `CC(C)c1ccc2nc3ccc(CNCCCCc4cccnc4)cn3c(=O)c2c1` [2-Isopropyl-8-[(4-pyridin-3-yl-butylamino)-methyl]-pyrido[2,1-b]quinazolin-11-one] was greater than 1000 nM.

Regarding `CC(C)c1ccc2nc3ccc(C(=O)OCCCCc4cccnc4)cn3c(=O)c2c1` [2-Isopropyl-11-oxo-11H-pyrido[2,1-b]quinazoline-8-carboxylic acid 4-pyridin-3-yl-butyl ester], in assay [1], the half-inhibitory concentration (IC50) was greater than 1000 nM. In assay [2], `CC(C)c1ccc2nc3ccc(C(=O)N[C@@H](C)CCCc4cccnc4)cn3c(=O)c2c1` [2-Isopropyl-11-oxo-11H-pyrido[2,1-b]quinazoline-8-carboxylic acid (1-methyl-4-pyridin-3-yl-butyl)-amide] came in with a concentration for half-maximal inhibition (IC50) of 600 nM.

`CC(C)c1ccc2nc3ccc(C(=O)N[C@H](C)CCCc4cccnc4)cn3c(=O)c2c1` [2-Isopropyl-11-oxo-11H-pyrido[2,1-b]quinazoline-8-carboxylic acid (1-methyl-4-pyridin-3-yl-butyl)-amide] came in with an IC50 in assay [2] of 250 nM. In assay [1], `CC(C)c1ccc2nc3ccc(C(=O)NCCCCCCc4cncnc4)cn3c(=O)c2c1` [2-Isopropyl-11-oxo-11H-pyrido[2,1-b]quinazoline-8-carboxylic acid (6-pyrimidin-5-yl-hexyl)-amide] displayed a concentration for half-maximal inhibition (IC50) of 200 nM. In turn, `CC(C)c1ccc2nc3ccc(S(=O)(=O)NCCCCc4cccnc4)cn3c(=O)c2c1` [2-Isopropyl-11-oxo-11H-pyrido[2,1-b]quinazoline-8-sulfonic acid (4-pyridin-3-yl-butyl)-amide] yielded an IC50 in assay [1] greater than 1000 nM. Regarding `Cc1cc2nc3ccc(C(=O)NCCCCc4ccc[n+](C)c4)cn3c(=O)c2cc1C` [3-{4-[(2,3-Dimethyl-11-oxo-11H-pyrido[2,1-b]quinazoline-8-carbonyl)-amino]-butyl}-1-methyl-pyridinium], the IC50 in assay [1] is greater than 1000 nM.

`Cc1cc2nc3ccc(C(=O)NCCCCc4cnc[n+](C)c4)cn3c(=O)c2cc1C` [5-{4-[(2,3-Dimethyl-11-oxo-11H-pyrido[2,1-b]quinazoline-8-carbonyl)-amino]-butyl}-1-methyl-pyrimidin-1-ium]: the IC50 in assay [1] was greater than 1000 nM.
